According to the supplement of paper PMC5752671:

How the values were obtained:
OCI-AML2 [1] = assay: area under dose-response curve (cell viability) (AUC (arbitrary, % viability x log concentration)); higher = less sensitive (more viable); details: 4 days
Method in brief: (§1)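 Fourteen leukemia cell lines were plated on extracellular-matrix-coated 384-well plates. Drugs were added robotically the next day at eight concentrations spanning 4–5 logs within 10^–12–10^–4 M, tailored per drug, in duplicate. Viability was read with CellTiter-Glo after 4 days. The value is the area under a four-parameter sigmoid fitted to the duplicate-averaged dose-response.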

HL60 [2] = assay: as above; details: 4 days
Method in brief: as §1

KASUMI1 [3] = assay: as above; details: 4 days
Method in brief: as §1

EOL-1 [4] = assay: as above; details: 4 days
Method in brief: as §1

AML190 = primary AML patient cells; assay: area under dose-response curve (cell viability), refractory AML patient cells (AUC (arbitrary, % viability x log concentration)); higher = less sensitive (more viable); details: 4 days; sample type: primary refractory AML patient cells
Method in brief: (§2)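 Primary cells from 12 refractory AML patients on a clinical trial were run in the same high-throughput screen on extracellular-matrix-coated 384-well plates. Drugs were tested at eight concentrations within 10^–12–10^–4 M, in duplicate. Viability was read with CellTiter-Glo after 4 days. The value is the area under the fitted dose-response curve.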

AML223 = primary AML patient cells; assay: as above; details: 4 days; sample type: primary refractory AML patient cells
Method in brief: as §2

MOLM/16 = assay: IC50 (cell viability) (log10 M); details: 4 days
Method in brief: (§3)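 Fourteen leukemia cell lines were seeded on 384-well plates coated with extracellular matrix, and drugs were added robotically the following day in duplicate at eight concentrations covering 4–5 logs within 10^–12–10^–4 M, with the range tailored to each drug. After 4 days, viability was read with CellTiter-Glo. Each table value is the concentration, in log10 M, at which a fitted four-parameter curve crosses 50% viability, or the highest tested concentration where that crossing is not reached. These values are reported as IC50.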

OCI-AML2 [5] = assay: IC50 (cell viability) (log10 M); details: 4 days
Method in brief: as §3

MV4.11 = assay: IC50 (cell viability) (log10 M); details: 4 days
Method in brief: as §3

HL60 [6] = assay: IC50 (cell viability) (log10 M); details: 4 days
Method in brief: as §3

OCI-AML3 = assay: IC50 (cell viability) (log10 M); details: 4 days
Method in brief: as §3

THP-1 = assay: IC50 (cell viability) (log10 M); details: 4 days
Method in brief: as §3

MOLM/13 = assay: IC50 (cell viability) (log10 M); details: 4 days
Method in brief: as §3

KG1 = assay: IC50 (cell viability) (log10 M); details: 4 days
Method in brief: as §3

KASUMI1 [7] = assay: IC50 (cell viability) (log10 M); details: 4 days
Method in brief: as §3

SKM1 = assay: IC50 (cell viability) (log10 M); details: 4 days
Method in brief: as §3

U937 = assay: IC50 (cell viability) (log10 M); details: 4 days
Method in brief: as §3

NB4 = assay: IC50 (cell viability) (log10 M); details: 4 days
Method in brief: as §3

EOL-1 [8] = assay: IC50 (cell viability) (log10 M); details: 4 days
Method in brief: as §3

PL-21 = assay: IC50 (cell viability) (log10 M); details: 4 days
Method in brief: as §3

IC50 (log10 M) (MOLM/16)	IC50 (log10 M) (OCI-AML2 [5])	IC50 (log10 M) (MV4.11)	IC50 (log10 M) (HL60 [6])	IC50 (log10 M) (OCI-AML3)	IC50 (log10 M) (THP-1)	IC50 (log10 M) (MOLM/13)	IC50 (log10 M) (SKM1)	IC50 (log10 M) (U937)	SMILES	area under dose-response curve (OCI-AML2 [1])	area under dose-response curve (HL60 [2])	area under dose-response curve (KASUMI1 [3])	area under dose-response curve (EOL-1 [4])	area under dose-response curve (AML190)	area under dose-response curve (AML223)	IC50 (log10 M) (KG1)	IC50 (log10 M) (KASUMI1 [7])	IC50 (log10 M) (NB4)	IC50 (log10 M) (EOL-1 [8])	IC50 (log10 M) (PL-21)
> -5	> -5	> -5	> -5	> -5	> -5	> -5	> -5	> -5	NC(=O)[C@@H](CCC(F)(F)F)N(Cc1ccc(-c2ncon2)cc1F)S(=O)(=O)c1ccc(Cl)cc1	652	692	634	642	608	646	> -5	> -5	> -5	> -5	> -5
> -6	-6	< -9.34	-6.01	-6.01	-6.01	-9.03	> -6	-6.37	CC(C)(C)c1cc(NC(=O)Nc2ccc(-c3cn4c(n3)sc3cc(OCCN5CCOCC5)ccc34)cc2)no1 [AC-220]	542	550	408	135	541	375	> -6	-6.48	> -6	< -9.34	–
> -5	> -5	-5.91	> -5	> -5	> -5	-5.98	> -5	> -5	COc1cc2nccc(Oc3ccc(NC(=O)NC4CC4)c(Cl)c3)c2cc1C(N)=O [E7080]	638	727	515	219	540	551	–	-5.24	> -5	-7.74	> -5
–	-5.68	-6.15	-6.46	-6	-5.71	-5.8	-6.37	-6.26	CS(=O)(=O)N1CCN(Cc2cc3nc(-c4cccc5[nH]ncc45)nc(N4CCOCC4)c3s2)CC1 [GDC-0941]	505	465	402	411	579	508	-5.35	-7.01	-5.49	-6.95	-6.77

Continued, compound first:

SMILES	IC50 (log10 M) (MOLM/16)	IC50 (log10 M) (OCI-AML2 [5])	IC50 (log10 M) (MV4.11)	IC50 (log10 M) (HL60 [6])	IC50 (log10 M) (OCI-AML3)	IC50 (log10 M) (THP-1)	IC50 (log10 M) (MOLM/13)	IC50 (log10 M) (SKM1)	IC50 (log10 M) (U937)	area under dose-response curve (OCI-AML2 [1])	area under dose-response curve (HL60 [2])	area under dose-response curve (KASUMI1 [3])	area under dose-response curve (EOL-1 [4])	area under dose-response curve (AML190)	area under dose-response curve (AML223)	IC50 (log10 M) (KG1)	IC50 (log10 M) (KASUMI1 [7])	IC50 (log10 M) (NB4)	IC50 (log10 M) (EOL-1 [8])	IC50 (log10 M) (PL-21)
CN1CCC(COc2cnc(-c3cccc(Cn4nc(-c5cccc(C#N)c5)ccc4=O)c3)nc2)CC1	> -5	> -5	> -5	> -5	> -5	> -5	> -5	> -5	> -5	650	729	715	625	643	613	> -5	> -5	> -5	> -5	> -5
C[C@@]1(C(=O)Nc2ccc(F)nc2)CCCN1c1nc(Nc2cc(C3CC3)n[nH]2)c2cccn2n1	-6.78	-6.15	-6.27	-7.3	-5.81	-5.79	-6.18	-6.18	-6.61	476	373	405	413	657	515	-6.35	-6.88	-6.61	-6.59	-7.16
COc1cc([C@@H]2c3cc4c(cc3[C@@H](O[C@@H]3O[C@@H]5CO[C@@H](C)O[C@H]5[C@H](O)[C@H]3O)[C@H]3COC(=O)[C@H]23)OCO4)cc(OC)c1O [Etoposide]	-6.42	–	-8.2	-5.78	-6.58	-5.97	-7.76	-7.22	-7.62	229	490	470	266	596	683	-5.49	-5.78	-7.71	-8.33	-5.67
CN1CC[C@H](c2c(O)cc(O)c3c(=O)cc(-c4ccccc4Cl)oc23)[C@H](O)C1 [Flavopiridol]	-7.4	-7.46	-7.35	-7.12	-7.03	-7.14	-7.27	–	-7.41	372	474	476	459	475	348	–	-7.17	-6.96	-7.2	-7.47
O=NN(CCCl)C(=O)NC1CCCCC1 [Lomustine]	–	–	–	–	–	–	–	–	–	558	719	711	552	655	307	–	–	–	–	–
NC1(c2ccc(-c3nc4ccn5c(=O)[nH]nc5c4cc3-c3ccccc3)cc2)CCC1 [MK2206]	-6.21	-5.45	-5.66	-5.37	-5.42	-5.31	-5.62	-5.76	-7.93	497	611	449	416	500	506	–	-5.83	-5.23	-6.28	-6.09
O=C1c2c(O)ccc(O)c2C(=O)c2c(NCCNCCO)ccc(NCCNCCO)c21 [Mitoxantrone]	-8.65	-9.21	< -9.48	-7.83	-8.3	-8.04	-9.18	-8.57	-9.09	187	306	285	135	375	510	-7.61	–	-9.01	< -9.48	-7.76
COC1=CC(c2cc3ccccc3[nH]2)=N/C1=C\c1[nH]c(C)cc1C [Obatoclax]	-7.04	-7.77	-7.27	-7.59	-7.55	–	-7.47	-6.64	-7.45	324	338	321	327	564	636	-7.72	-8.02	-7.77	-7.65	-7.66
